Data on 12 compounds can be found in patent publication US9296747B1, “Piperidylpyrimidine derivatives as modulators of protein kinase inhibitors and of vascular endothelial growth factor receptor 2” (Allergan, Inc., priority 2014, dated 2016).

For assay [1], the target named is VEGFR2 (purified cytoplasmic domain KDR protein) (Homo sapiens (Human), UniProt P35968). Nature of the assay: VEGFR2 Kinase Assay (biochemical KDR kinase, poly-Glu-Tyr ELISA). The following applies: 2.7 μM ATP, 15 minute incubation at 30° C. How it is done: VEGFR2 Kinase Assay […] Test compounds were reconstituted in 100% DMSO and added to the reaction to give a final DMSO concentration of 5%. […] Following a 15 minute incubation at 30° C., the reactions were washed 2 mls per well PBS-T. 100 μl of a monoclonal anti-phosphotyrosine antibody-peroxidase conjugate diluted 1:10,000 in PBS-T was added to the wells for 30 minutes. Following a 2 mls per well wash with PBS-Tween-20, 100 μl of 0-Phenylenediamine Dihydrochloride in phosphate-citrate buffer, containing urea hydrogen peroxide, was added to the wells for 7-10 minutes as a colorimetric substrate for the peroxidase. The reaction was terminated by the addition of 100 μl of 2.5N H2SO4 to each well and read using a microplate ELISA reader set at 492 nm. IC50 values for compound inhibition were calculated directly from graphs of optical density (arbitrary units) versus compound concentration following subtraction of blank values.
Chain of VEGFR2 (purified cytoplasmic domain KDR protein) (P35968 786-1356): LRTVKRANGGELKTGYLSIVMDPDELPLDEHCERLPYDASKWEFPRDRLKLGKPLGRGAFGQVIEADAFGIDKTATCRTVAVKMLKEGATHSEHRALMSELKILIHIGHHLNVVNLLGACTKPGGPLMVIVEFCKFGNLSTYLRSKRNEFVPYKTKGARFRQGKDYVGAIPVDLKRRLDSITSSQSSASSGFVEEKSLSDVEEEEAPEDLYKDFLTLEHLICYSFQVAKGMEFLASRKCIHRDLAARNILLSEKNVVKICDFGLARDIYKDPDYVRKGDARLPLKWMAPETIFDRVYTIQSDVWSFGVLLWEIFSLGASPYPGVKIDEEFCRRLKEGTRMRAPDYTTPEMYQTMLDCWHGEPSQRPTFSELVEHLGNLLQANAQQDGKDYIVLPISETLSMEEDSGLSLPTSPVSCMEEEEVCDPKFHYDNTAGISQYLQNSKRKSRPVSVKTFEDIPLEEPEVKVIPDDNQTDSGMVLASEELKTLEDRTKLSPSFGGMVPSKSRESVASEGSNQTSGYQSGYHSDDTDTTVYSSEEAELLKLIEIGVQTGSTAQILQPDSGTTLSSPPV
In general terms: An ELISA detects its analyte on a solid surface through an enzyme-linked reagent.

Assay [2] has as its target recombinant human GST-PKR (Homo sapiens (Human), UniProt P19525). Nature of the assay: PKR KinaseGlo Assay. The assay is classed as biochemical. The conditions noted are these: 6.6 uM ATP, 10 minutes at room temperature. How it is done:
Commercially available recombinant human GST-PKR (SignalChem, Canada; 1.5 uM-2 uM stock) is diluted to 500 nM in assay buffer (20 mM Tris-HCl, pH 7.2, 10 mM KCl, 10 mM MgCl2, 10% glycerol). Preactivated PKR is dispensed to 384/96-well black plates at 3.125/12.5 uls/well using the liquid handler Janus. Appropriate dilutions of inhibitors are added to 384/96-well plate followed by 6.6 uM ATP (final) and incubated for 10 minutes at room temperature. The remaining ATP/well is determined by adding 6.25/25 uls/well Kinase-Glo assay mix (Promega) and luminescence is measured on EnVision luminescence plate reader (integration time, 0.2 sec; Perkin-Elmer, Massachusetts, USA). The % inhibition for the compounds is calculated using ATP only (100% inhibition) and PKR+ATP (0% inhibition). […] values are determined by plotting % activity versus inhibitor concentration. Curves are fitted using Activity base XLfit (IDBS, UK) using the formula— • 4 Parameter Logistic Model fit=(A+((B−A)/(1+(10^((C−x)*D))))) inv=(C−(log(((B−A)/(y−A))−1)/D)) res=(y−fit)

Assay [3] concerns the target PDGFRβ (purified cytoplasmic domain PDGFR-b protein) (Homo sapiens (Human), UniProt P09619). Nature of the assay: PDGFRβ Kinase Assay (biochemical, poly-Glu-Tyr ELISA). The following applies: 36 μM ATP, 60 minute incubation at 30° C. How it is done:
Biochemical PDGFRβ kinase assays were performed in 96 well microtiter plates that were coated overnight with 75 μg of poly-Glu-Tyr (4:1) in 10 mM Phosphate Buffered Saline (PBS), pH 7.4. The coated plates were washed with 2 mls per well PBS+0.05% Tween-20 (PBS-T), blocked by incubation with PBS containing 1% BSA, then washed with 2 mls per well PBS-T prior to starting the reaction. Reactions were carried out in 100 μL reaction volumes containing 36 μM ATP in kinase buffer (50 mM Hepes buffer pH 7.4, 20 mM MgCl2, 0.1 mM MnCl2 and 0.2 mM Na3VO4). Test compounds were reconstituted in 100% DMSO and added to the reaction to give a final DMSO concentration of 5%. Reactions were initiated by the addition 20 ul per well of kinase buffer containing 200-300 ng purified cytoplasmic domain PDGFR-b protein (Millipore). Following a 60 minute incubation at 30° C., the reactions were washed 2 mls per well PBS-T. 100 μl of a monoclonal anti-phosphotyrosine antibody-peroxidase conjugate diluted 1:10,000 in PBS-T was added to the wells for 30 minutes. Following a 2 mls per well wash with PBS-Tween-20, 100 μl of 0-Phenylenediamine Dihydrochloride in phosphate-citrate buffer, containing urea hydrogen peroxide, was added to the wells for 7-10 minutes as a colorimetric substrate for the peroxidase. The reaction was terminated by the addition of 100 μl of 2.5N H2SO4 to each well and read using a microplate ELISA reader set at 492 nm. IC50 values for compound inhibition were calculated directly from graphs of optical density (arbitrary units) versus compound concentration following subtraction of blank values.

Usually IC50 stands for the concentration that gives 50% inhibition.

Chain of PDGFRβ (purified cytoplasmic domain PDGFR-b protein) (P09619 554-1106): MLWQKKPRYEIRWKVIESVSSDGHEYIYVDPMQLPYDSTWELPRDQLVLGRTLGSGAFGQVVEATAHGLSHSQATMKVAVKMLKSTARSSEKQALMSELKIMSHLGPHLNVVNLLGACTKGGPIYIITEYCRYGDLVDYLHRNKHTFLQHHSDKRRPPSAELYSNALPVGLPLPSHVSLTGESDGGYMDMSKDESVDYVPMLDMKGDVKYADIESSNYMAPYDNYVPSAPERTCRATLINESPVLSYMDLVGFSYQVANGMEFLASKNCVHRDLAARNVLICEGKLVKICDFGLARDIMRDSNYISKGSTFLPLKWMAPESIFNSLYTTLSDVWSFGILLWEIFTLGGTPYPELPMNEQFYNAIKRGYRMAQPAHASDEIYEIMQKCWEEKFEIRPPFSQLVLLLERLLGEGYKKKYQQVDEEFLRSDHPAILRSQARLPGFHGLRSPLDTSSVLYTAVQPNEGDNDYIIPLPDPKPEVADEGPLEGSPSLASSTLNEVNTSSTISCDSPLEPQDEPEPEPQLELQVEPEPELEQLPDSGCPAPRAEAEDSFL
Chain of recombinant human GST-PKR (P19525 whole entry): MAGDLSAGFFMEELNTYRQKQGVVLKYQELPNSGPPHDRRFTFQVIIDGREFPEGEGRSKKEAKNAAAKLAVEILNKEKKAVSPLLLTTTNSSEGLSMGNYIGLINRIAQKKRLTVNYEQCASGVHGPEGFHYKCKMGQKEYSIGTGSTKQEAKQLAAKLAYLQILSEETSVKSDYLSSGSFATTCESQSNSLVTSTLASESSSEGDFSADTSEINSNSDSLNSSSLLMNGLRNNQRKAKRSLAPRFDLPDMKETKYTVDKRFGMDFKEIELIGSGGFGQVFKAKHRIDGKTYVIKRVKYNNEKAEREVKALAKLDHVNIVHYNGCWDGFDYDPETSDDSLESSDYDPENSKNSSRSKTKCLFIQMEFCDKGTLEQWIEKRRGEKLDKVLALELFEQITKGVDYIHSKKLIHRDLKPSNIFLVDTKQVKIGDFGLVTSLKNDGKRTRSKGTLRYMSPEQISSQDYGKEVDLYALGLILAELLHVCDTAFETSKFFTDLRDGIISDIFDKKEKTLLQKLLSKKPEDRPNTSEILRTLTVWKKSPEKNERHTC

As for `COc1cc(Nc2ncc3c(n2)CCN(C(=O)c2ccccn2)C3)cc(OC)c1OC` [Example 15, 6-(pyridin-2-ylcarbonyl)-N-(3,4,5-trimethoxyphenyl)-5,6,7,8-tetrahydropyrido[4,3-d]pyrimidin-2-amine], the IC50 in assay [1] amounted to 1850 nM; in assay [2], 2820 nM.

Consider `COc1ccc(Nc2ncc3c(n2)CCN(C(=O)c2cccnc2)C3)cc1` [Example 5, N-(4-methoxyphenyl)-6-(pyridin-3-ylcarbonyl)-5,6,7,8-tetrahydropyrido[4,3-d]pyrimidin-2-amine], for which the IC50 in assay [3] was 17 nM; in assay [1] it was 5 nM; in assay [2], more than 40000 nM.

Take `COc1cc(Nc2ncc3c(n2)CCN(C(=O)c2cccnc2)C3)cc(OC)c1` [Example 17, N-(3,5-dimethoxyphenyl)-6-(pyridin-3-ylcarbonyl)-5,6,7,8-tetrahydropyrido[4,3-d]pyrimidin-2-amine]: the IC50 in assay [2] came to 130 nM.

For `COc1cc(Nc2ncc3c(n2)CCN(C(=O)c2occc2C)C3)cc(OC)c1OC` [Example 11, 6-(3-methyl-2-furoyl)-N-(3,4,5-trimethoxyphenyl)-5,6,7,8-tetrahydropyrido[4,3-d]pyrimidin-2-amine], the IC50 was 239 nM in assay [3] and 6 nM in assay [1].

As for `COc1cc(Nc2ncc3c(n2)CCN(C(=O)c2cc(C)nn2C)C3)cc(OC)c1OC` [Example 12, 6-[(1,3-dimethyl-1H-pyrazol-5-yl)carbonyl]-N-(3,4,5-trimethoxyphenyl)-5,6,7,8-tetrahydropyrido[4,3-d]pyrimidin-2-amine], the IC50 came out at 19 nM in assay [3] and 5 nM in assay [1].

As to `COc1cc(Nc2ncc3c(n2)CCN(C(=O)c2cccs2)C3)cc(OC)c1OC` [Example 13, 6-(2-thienylcarbonyl)-N-(3,4,5-trimethoxyphenyl)-5,6,7,8-tetrahydropyrido[4,3-d]pyrimidin-2-amine], it took 8 nM to reach half-maximal inhibition in assay [1] (IC50).

With `COc1ccccc1Nc1ncc2c(n1)CCN(C(=O)c1cccnc1)C2` [Example 7, N-(2-methoxyphenyl)-6-(pyridin-3-ylcarbonyl)-5,6,7,8-tetrahydropyrido[4,3-d]pyrimidin-2-amine], the IC50 in assay [3] turned out to be 244 nM; in assay [1] it was 10 nM.

As for `Cn1nccc1Nc1ncc2c(n1)CCN(C(=O)c1cccnc1)C2` [Example 8, N-(1-methyl-1H-pyrazol-5-yl)-6-(pyridin-3-ylcarbonyl)-5,6,7,8-tetrahydropyrido[4,3-d]pyrimidin-2-amine], the IC50 came out at 130 nM in assay [3] and 16 nM in assay [1].

Regarding `COc1ccc(Nc2ncc3c(n2)CCN(C(=O)c2cccnc2)C3)cc1OC` [Example 16, N-(3,4-dimethoxyphenyl)-6-(pyridin-3-ylcarbonyl)-5,6,7,8-tetrahydropyrido[4,3-d]pyrimidin-2-amine], the IC50 in assay [2] is 176 nM.

For “N-phenyl-6-(pyridin-3-ylcarbonyl)-5,6,7,8-tetrahydropyrido[4,3-d]pyrimidin-2-amine [Example 2]”, the IC50 in assay [1] was more than 100000 nM; in assay [2], 89 nM.

`COc1cccc(Nc2ncc3c(n2)CCN(C(=O)c2cccnc2)C3)c1` [Example 6, N-(3-methoxyphenyl)-6-(pyridin-3-ylcarbonyl)-5,6,7,8-tetrahydropyrido[4,3-d]pyrimidin-2-amine]: the IC50 is 443 nM in assay [1] and more than 40000 nM in assay [2].

As for `O=C(Nc1cccnc1)N1CCc2nc(Nc3ccccc3)ncc2C1` [Example 3, 2-anilino-N-pyridin-3-yl-7,8-dihydropyrido[4,3-d]pyrimidine-6(5H)-carboxamide], the IC50 is more than 10000 nM in assay [1] and 282 nM in assay [2].
